Where two headings read alike, the source gives them in different places.
Tests used:
U-87 glioblastoma cells = assay: MTT antiproliferative assay, U-87; format: cell-based; conditions: Homo sapiens, Table 6, 48 h, ± SD, read-out: GI50 in vitro Values, U-87
Description: (§1) Human cancer cell lines were obtained from the American Type Culture Collection (ATCC, Manassas, Va., USA), the European Collection of Cell Culture (ECACC, Salisbury, UK) and the Deutsche Sammlung von Mikroorganismen and Zellkulturen (DSMZ, Braunschweig, Germany). Human cervical adenocarcinoma HeLa cells were cultured in DMEM supplemented with 10% fetal bovine serum (FBS). Human mammary carcinoma MCF-7 cells were cultured in RPMI supplemented with 10% FBS. The U87 and U373 cells were cultured in DMEM culture medium (Lonza code 12-136F, Vervier, Belgium), while the SKMEL-28 and A549 cells were cultured in RPMI culture medium (Lonza; code 12-115F) supplemented with 10% heat-inactivated FBS (Lonza, FBS South America code DE14-801F). […] All cell lines were cultured in T25 flasks, maintained and grown at 37° C., 95% humidity, 5% CO2.
(§2) To evaluate antiproliferative properties of the synthesized compounds, the MTT assay was used. The cell lines were assessed by trypsinizing each cell line and seeding 4×10^3 cells per well into 96-well plates. All compounds were dissolved in DMSO at a concentration of either 100 mM or 50 mM prior to cell treatment. The cells were grown for 24 h and then treated with compounds at concentrations ranging from 0.04 to 100 μM and incubated for 48 h in 200 μL media. 20 μL of MTT reagent in serum free medium (5 mg/mL) was added to each well and incubated further for 2 h. Media was removed, and the resulting formazan crystals were re-solubilized in 200 μL of DMSO. A490 was measured using a Thermomax Molecular Device plate reader. The experiments were performed in quadruplicate and repeated at least twice for each compound per cell line. Cells treated with 0.1% DMSO were used as a control, and 1 μM phenyl arsine oxide (PAO) was used as a positive killing control.

[1] = tested on: MCF-7 mammary gland adenocarcinoma cells; assay: MTT antiproliferative assay, MCF-7; format: cell-based; conditions: Homo sapiens, MCF7, MTT, ± SD, read-out: GI50 in vitro Values, MCF-7
Description: (§3) Human T-cell leukemia cell line Jurkat (ATCC TIB-152, E6-1 clone) was cultured in RPMI-1640 (Invitrogen) supplemented with 10% FBS (Invitrogen), 100 mg/L penicillin G, 100 mg/L streptomycin, 1.0 mM sodium pyruvate, 1.5 g/L sodium bicarbonate, and 4.5 g/L glucose (all from Sigma). Human cervical cancer cell line HeLa (ATCC S3) was cultured in DMEM (Invitrogen) supplemented with 10% FBS, 100 mg/L penicillin G, and 100 mg/L streptomycin. MCF-7 (human mammary carcinoma) cells were cultured in DMEM supplemented with 1.0 mM sodium pyruvate, 1% GlutaMax™-1 (Invitrogen), 100 μg/mL penicillin, 100 μg/mL streptomycin, and 10% FBS. Human uterine sarcoma MES-SA and MES-SA/Dx5 cells were cultured in RPMI-1640 medium supplemented with 10% FBS, 100 mg/L penicillin G and 100 mg/L streptomycin. All cells were incubated at 37° C. in a humidified atmosphere with 5% CO2. The other cell lines were maintained in a similar fashion as previously described.
(§4) To evaluate antiproliferative properties of the compounds of Formula I, mitochondrial dehydrogenase activities were measured using the MTT assay. The cell lines were prepared by trypsinizing and seeding […] cells per well into microplates. All compounds were reconstituted in dimethyl sulfoxide (DMSO) at a concentration of either 100 mM or 25 mM prior to treatment. The cells were grown for 24 hrs before treatment at concentrations ranging from 0.004 to 100 microM and incubated for 48 hrs in 200 microL media. 20 microL of MTT reagent in serum free medium (5 mg/mL) was added to each well and incubated further for 2 hrs. Media was removed and the resulting formazan crystals were re-solubilized in 100 microL of DMSO and the optical density (OD) was measured using a Thermomax Molecular Device plate reader at a wavelength of 490 nm. The experiments were performed in quadruplicate and repeated at least twice for each compound per cell line. Cells treated with 0.1% DMSO were used as a negative control, while phenyl arsine oxide (PAO) was used as a positive killing control.
as §1, §2

[2] = tested on: HeLa cervical adenocarcinoma cells; assay: MTT antiproliferative assay, HeLa; format: cell-based; conditions: Homo sapiens, MTT, ± SD, read-out: GI50 in vitro Values, HeLa
Description: as §3, §4, §1, §2

[3] = tested on: A549 non-small-cell lung cancer cells; assay: MTT antiproliferative assay, A549; format: cell-based; conditions: Homo sapiens
Description: as §4, §1, §2

[4] = tested on: HeLa, MCF-7, U-87 and A549 cells; assay: MTT antiproliferative activity, statements for four-cell-line panel; format: cell-based, human; conditions: MCF-7, U-87, A549, 48 h
Description: The antiproliferative effects of compounds 13 and 18-23 were studied in a more challenging cell line panel that, in addition to the previously utilized HeLa and MCF-7, contained in vitro models for cancers known to be associated with poor prognoses, such as the U-87 human glioblastoma and A549 human non-small-cell lung (NSCLC) carcinoma.
as §2

SKMEL-28 melanoma cells = assay: MTT antiproliferative assay, SKMEL-28; format: cell-based, human; conditions: SK-MEL-28
Description: as §4, §1
as §2, with “Cells treated with 0.1% DMSO were used as a control, and 1 μM phenyl arsine oxide (PAO) was used as a positive killing control.” left out

U373 glioblastoma cells [5] = assay: MTT antiproliferative assay, U373; format: cell-based, human; conditions: U373 MG
Description: as §4, §1
as §2, with “Cells treated with 0.1% DMSO were used as a control, and 1 μM phenyl arsine oxide (PAO) was used as a positive killing control.” left out

SKMEL melanoma cells = assay: Quantitative videomicroscopy, SKMEL; format: cell-based, human; conditions: at MTT-based GI50 value
Excerpt: (§5) Poor prognoses of glioblastoma, melanoma and NSCLC patients are generally attributed to the drug resistant nature of these malignanciesand therefore it was encouraging that 7-deazahypoxanthines 13 and 18-23 were active against the U87 human glioblastoma and A549 NSCLC carcinoma cell lines. Since tubulin-targeting agents are generally poorly effective against cancer cells resistant to the induction of apoptosis, compound 22 was further evaluated against U373 human glioblastoma and SKMEL human melanoma cells, reported to display apoptosis resistance. […] Computer-assisted phase-contrast microscopy (quantitative videomicroscopy) was utilized to confirm cell death as the principal mechanism of action associated with this compound's in vitro growth inhibitory effects in these cell lines.
(§6) The effects of 22 on the viability of human U373 glioblastoma and SKMEL melanoma cells were characterized in vitro using computer-assisted phase contrast video microscopy, as described elsewhere.

U373 glioblastoma cells [6] = assay: Quantitative videomicroscopy, U373; format: cell-based, human; conditions: U373, at MTT-based GI50 value
Excerpt: as §5, §6

[7] = tested on: UM-SCC10A head and neck cancer cells; assay: MTT antiproliferative assay, UM-SCC10A; format: cell-based; conditions: UMSCC-10A, Table 1A, 48 h, read-out: Concentration required to reduce the viability of cells by 50%, UM-SCC10A
Description: as §4

[8] = tested on: UM-SCC10B head and neck metastases cells; assay: MTT antiproliferative assay, UM-SCC10B; format: cell-based; conditions: Table 1A, 48 h, read-out: Concentration required to reduce the viability of cells by 50%, UM-SCC10B
Description: as §4

B16F10 melanoma cells = assay: MTT antiproliferative assay, B16F10; format: cell-based; conditions: Mus musculus, B16-F10, Table 2, 48 h, read-out: GI50 in vitro values, B16F10
Description: as §4

[9] = tested on: Hs683 anaplastic oligodendroglioma cells; assay: MTT antiproliferative assay, Hs683; format: cell-based; conditions: Homo sapiens, Hs 683, Table 2, 48 h, read-out: GI50 in vitro values, Hs683
Description: as §4

[10] = tested on: UM-SCC22B head and neck metastases cells; assay: MTT antiproliferative assay, UM-SCC22B; format: cell-based; conditions: Homo sapiens, UMSCC22B, Table 1A, 48 h, read-out: Concentration required to reduce the viability of cells by 50%, UM-SCC22B
Description: as §4

[11] = tested on: UM-SCC22A head and neck cancer cells; assay: MTT antiproliferative assay, UM-SCC22A; format: cell-based; conditions: Table 1A, 48 h, read-out: Concentration required to reduce the viability of cells by 50%, UM-SCC22A
Description: as §4

GEO colon cancer cells = assay: MTT antiproliferative assay, GEO; format: cell-based; conditions: Table 1A, 48 h, read-out: Concentration required to reduce the viability of cells by 50%, GEO
Description: as §4

HCT8 colon cancer cells = assay: MTT antiproliferative assay, HCT8; format: cell-based; conditions: Homo sapiens, HCT-8, Table 1A, 48 h, read-out: Concentration required to reduce the viability of cells by 50%, HCT8
Description: as §4

[12] = tested on: MES-SA uterine sarcoma cells; assay: MTT antiproliferative assay, MES-SA; format: cell-based; conditions: Homo sapiens, Table 3, parental drug-responsive cell line, read-out: GI50 in vitro Values, MES-SA
Description: as §3, with “The other cell lines were maintained in a similar fashion as previously described.” left out
To evaluate antiproliferative properties of the compounds of Formula I, mitochondrial dehydrogenase activities were measured using the MTT assay. […] Media was removed and the resulting formazan crystals were re-solubilized in 100 microL of DMSO and the optical density (OD) was measured using a Thermomax Molecular Device plate reader at a wavelength of 490 nm. […]
The cells of such tumors are referred to as multidrug resistant (MDR). Thus, we assessed the compounds of Formula I for antiproliferative activity in an MDR cancer cell line. […]

SW480 colon cancer cells = assay: MTT antiproliferative assay, SW480; format: cell-based; conditions: Homo sapiens, Table 1A, 48 h, read-out: Concentration required to reduce the viability of cells by 50%, SW480
Description: as §4

[13] = tested on: MES-SA/Dx5 uterine sarcoma cells (overexpress p-gp); assay: MTT antiproliferative assay, MDR MES-SA/Dx5; format: cell-based, human
Description: as §3, §4
The cells of such tumors are referred to as multidrug resistant (MDR). Thus, we assessed the compounds of Formula I for antiproliferative activity in an MDR cancer cell line. This was done using the uterine sarcoma cells, MES-SA/Dx5, which overexpress p-gp. The parental drug-responsive MES-SA cell line was used as control.

SW620 colon cancer cells = assay: MTT antiproliferative assay, SW620; format: cell-based; conditions: Homo sapiens, SW-620, Table 1A, 48 h, read-out: Concentration required to reduce the viability of cells by 50%, SW620
Description: as §4

[14] = Table 6, 48 h, ± SD, read-out: GI50 in vitro Values, A549
[15] = Homo sapiens, Table 2, 48 h, MTT, read-out: GI50 in vitro values, SKMEL-28
[16] = Homo sapiens, Table 2, 48 h, MTT, read-out: GI50 in vitro values, U373
[17] = Table 2, 48 h, read-out: GI50 in vitro values, A549

Structure (SMILES) | GI50 (U-87 glioblastoma cells) | GI50 ([1]; Table 6, 48 h) | GI50 ([2]; Table 6, 48 h) | GI50 [3, 14] | GI50 (SKMEL-28 melanoma cells; [15]) | GI50 ([1]; Table 1, 48 h treatment) | GI50 (B16F10 melanoma cells) | GI50 ([2]; Table 1, 48 h treatment) | GI50 (U373 glioblastoma cells [5]; [16]) | GI50 [9] | GI50 [3, 17] | further results
Cc1nc(=O)c2c(-c3cccnc3)c(C(=O)c3ccccc3)[nH]c2[nH]1 [Compound 21, 6-Benzoyl-2-methyl-5-(pyridin-3-yl)-1H-pyrrolo[2,3-d]pyrimidin-4(7H)-one] | 9.23 ± 2.13 µM | 4.7 ± 0.8 µM | 3.1 ± 0.1 µM | 12 ± 1.4 µM | – | – | – | – | – | – | – | antiproliferative potencies (in words) [4]: single-digit micromolar potencies
Cc1nc(=O)c2c(-c3cncc(Br)c3)c(C(=O)c3ccccc3)[nH]c2[nH]1 [Compound 22, 6-Benzoyl-5-(5-bromopyridin-3-yl)-2-methyl-1H-pyrrolo[2,3-d]pyrimidin-4(7H)-one] | 2.4 ± 0.6 µM | 0.61 ± 0.01 µM | 0.49 ± 0.05 µM | 1.1 ± 0.4 µM | – | – | – | – | – | – | – | GI50 (SKMEL-28 melanoma cells; apoptosis-resistant SKMEL human melanoma, read-out: MTT-based GI50 value, SKMEL): 0.3 µM; GI50 (U373 glioblastoma cells [5]; apoptosis-resistant U373 human glioblastoma, read-out: MTT-based GI50 value, U373): 0.3 µM; mechanism of growth inhibition by videomicroscopy (in words) (SKMEL melanoma cells): inhibited cancer cell proliferation by inducing cell death; mechanism of growth inhibition by videomicroscopy (in words) (U373 glioblastoma cells [6]): inhibited cancer cell proliferation by inducing cell death
O=C(c1ccccc1)c1[nH]c2[nH]cnc(=O)c2c1-c1cncc(Br)c1 [Rig9, 6-Benzoyl-5-(5-bromopyridin-3-yl)-1H-pyrrolo[2,3-d]pyrimidin-4(7H)-one] | – | – | – | – | 0.02 µM | 0.087 ± 0.02 µM | 0.04 µM | 0.08 ± 0.025 µM | 0.03 µM | 0.02 µM | 0.02 µM | IC50 [7]: 0.09 µM; IC50 [8]: 0.13 µM; IC50 [10]: 0.02 µM; IC50 [11]: 0.12 µM
O=C(c1ccccc1)c1[nH]c2[nH]cnc(=O)c2c1-c1ccccc1 [Rig35, 6-Benzoyl-5-phenyl-1H-pyrrolo[2,3-d]pyrimidin-4(7H)-one] | – | – | – | – | < 0.01 µM | 0.04 ± 0.024 µM | 0.01 µM | 0.035 ± 0.007 µM | < 0.01 µM | 0.01 µM | 0.02 µM | IC50 (GEO colon cancer cells): 0.008 µM; IC50 (HCT8 colon cancer cells): < 0.001 µM; GI50 [12]: 0.03 ± 0.004 µM; IC50 (SW480 colon cancer cells): < 0.001 µM; GI50 ([13]; Homo sapiens, MES-SA/Dx5, Table 3, MDR cell line, read-out: GI50 in vitro Values, MES-SA/Dx5): 0.07 ± 0.004 µM; variation in the sensitivities of the parental and MDR cell lines ([13]; MES-SA/Dx5 vs MES-SA, in words): only a small variation; IC50 (SW620 colon cancer cells): < 0.001 µM
